Test results reported in patent US5112739A, “Enzyme controlled release system” (Polaroid Corporation, priority 1988, dated 1992).

How the values were obtained:
Format in all cases: biochemical
[1] = target: β-galactosidase from e. coli (Escherichia coli, UniProt P00722); experiment: relative release rate of the leaving group on cleavage by β-galactosidase, spectrophotometric; conditions: for APPROXIMATE RELATIVE RATE (release of leaving group, compared with ONPG): 5 × 10^-5 M compound, pH7 tris buffer, 0.01 M NaCl, 0.01 M MgCl2, 25° C., 1.5 IU β-galactosidase, ONPG = 1.0; for release rate, comparison in words: same test as the relative rate table, β-galactosidase from e. coli
β-galactosidase from e. coli, sequence (P00722 whole entry): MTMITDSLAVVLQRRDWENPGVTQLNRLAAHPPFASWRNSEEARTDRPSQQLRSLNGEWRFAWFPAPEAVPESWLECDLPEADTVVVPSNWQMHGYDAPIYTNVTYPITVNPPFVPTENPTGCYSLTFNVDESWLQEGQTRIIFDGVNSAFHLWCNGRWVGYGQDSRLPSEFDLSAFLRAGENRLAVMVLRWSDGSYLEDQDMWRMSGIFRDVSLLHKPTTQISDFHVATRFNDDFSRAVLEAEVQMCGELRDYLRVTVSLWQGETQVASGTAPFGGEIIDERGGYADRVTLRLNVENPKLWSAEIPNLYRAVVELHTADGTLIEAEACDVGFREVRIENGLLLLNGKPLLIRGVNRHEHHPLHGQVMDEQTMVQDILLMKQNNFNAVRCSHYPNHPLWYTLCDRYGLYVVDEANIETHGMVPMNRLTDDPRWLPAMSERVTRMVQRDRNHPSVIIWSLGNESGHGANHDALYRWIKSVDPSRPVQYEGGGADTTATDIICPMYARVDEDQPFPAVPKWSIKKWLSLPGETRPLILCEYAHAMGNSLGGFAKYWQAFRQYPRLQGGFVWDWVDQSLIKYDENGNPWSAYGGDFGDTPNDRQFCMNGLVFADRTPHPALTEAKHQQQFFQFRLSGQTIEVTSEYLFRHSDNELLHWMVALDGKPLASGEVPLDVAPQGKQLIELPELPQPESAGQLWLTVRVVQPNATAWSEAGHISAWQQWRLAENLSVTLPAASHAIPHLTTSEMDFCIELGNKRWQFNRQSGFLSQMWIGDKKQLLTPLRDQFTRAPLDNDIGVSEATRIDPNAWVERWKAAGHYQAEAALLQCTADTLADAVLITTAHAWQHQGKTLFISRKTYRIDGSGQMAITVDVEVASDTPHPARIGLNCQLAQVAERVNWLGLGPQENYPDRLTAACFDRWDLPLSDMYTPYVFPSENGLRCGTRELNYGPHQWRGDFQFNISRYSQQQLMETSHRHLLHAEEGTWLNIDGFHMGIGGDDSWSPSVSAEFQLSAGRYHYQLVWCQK
Experimental: The approximate relative release rates of the leaving groups of compounds according to the invention compared with that of o-nitrophenolgalactoside (ONPG) were measured according to the following procedure: a 5 × 10^-5 M solution of the compound was formed in pH7 tris(hydroxymethyl)aminomethane buffer which was 0.01 M in sodium chloride and 0.01 M in magnesium chloride at 25° C. The solution was placed in a 3 ml cuvette and 1.5 IU of β-galactosidase from e. coli introduced. The reaction mixture was monitored in a spectrophotometer at the appropriate wavelength.

[2] = tested on: β-galactosidase (e. coli); experiment: fluorescence rate of compound B as a function of β-galactosidase concentration (standard curve); conditions: 45 μl 0.614 mmolar compound + 5 μl enzyme, pH 7.6, ex 550 nm/em 580 nm, 0 and 2 minutes, average of two
[3] = tested on: anti α-TSH-β-galactosidase conjugate; experiment: release of dye from compound B by anti α-TSH-β-galactosidase conjugate, optical density and fluorescence; conditions: 100 μl of 0.3 mmolar mixture, pH 7.0 buffer, + 10 μl conjugate, 15 minutes at 37° C., enzyme 1.3 × 10^-12 molar
Experimental: A 0.3 :mmolar mixture of compound B in a pH 7.0 buffer (0.1 molar NaH2 PO 0.15 molar NaCl, 0.1% Zwittergent 3-14) was stirred at room temperature for 30 minutes and then filtered through a 0.22 μ filter element. The concentration of the compound was calculated by diluting the solution (1:10) to provide an optical density of between 0.39 and 0.41 at 470 nm (ε=20,000).
The solution (100 μl) was added to a microtiter plate well and the optical density was measured at 570 nm with an EIA Auto Reader, Model EL 310 from Bio Tek Instruments. The fluorescence of the same 100 μl volume of the solution was measured with a Titertek Fluoroska® from Flow Laboratories by exciting at 550 nm and reading at 580 nm.
To each of the 100 μl volumes of the solution there were added 10 μl of an anti α-TSH-β-galactosidase conjugate ([…] in β-galactosidase) and the mixtures were incubated for 15 minutes at 37° C. followed by measuring the optical density and fluorescence as described above.

Structure (SMILES)	APPROXIMATE RELATIVE RATE (release of leaving group, compared with ONPG) [1]	release rate, comparison in words [1]	further results
O=C(c1cc(O[C@@H]2O[C@H](CO)[C@H](O)[C@H](O)[C@H]2O)c([N+](=O)[O-])cc1COc1ccc2nc3ccc(=O)cc-3oc2c1)N1CCOCC1 [D]	0.02	much slower release rate	
O=C(c1cc2ccc(OCc3ccc(O[C@@H]4O[C@H](CO)[C@H](O)[C@H](O)[C@H]4O)c([N+](=O)[O-])c3)cc2oc1=O)N1CCOCC1 [E]	0.1-0.5		
O=c1ccc2nc3ccc(OCc4ccc(O[C@@H]5O[C@H](CO)[C@H](O)[C@H](O)[C@H]5O)c([N+](=O)[O-])c4)cc3oc-2c1 [A]	0.25	significantly different release rates	
O=[N+]([O-])c1ccccc1O[C@@H]1O[C@H](CO)[C@H](O)[C@H](O)[C@H]1O [ONPG, o-nitrophenolgalactoside, reference compound]	1.0		
Cc1cc(=O)c(C(=O)N2CCOCC2)c2oc3c(C(=O)N4CCOCC4)c(OCc4ccc(O[C@@H]5O[C@H](CO)[C@H](O)[C@H](O)[C@H]5O)c([N+](=O)[O-])c4)cc(C)c3nc1-2 [B]	0.3		change in voltage/minute (fluorescence) ([2]; Enzyme Conc. 1 × 10^-11): 2.161 V/min; change in voltage/minute (fluorescence) ([2]; Enzyme Conc. 1 × 10^-12): 0.247 V/min; change in voltage/minute (fluorescence) ([2]; Enzyme Conc. 1 × 10^-13): 0.035 V/min; change in voltage/minute (fluorescence) ([2]; Enzyme Conc. 3 × 10^-12): 0.734 V/min; change in voltage/minute (fluorescence) ([2]; Enzyme Conc. 3 × 10^-13): 0.078 V/min; change in optical density ([3]; 570 nm): 0.0594; change in fluorescence ([3]; excitation 550 nm, reading 580 nm): 7266 mV
O=c1ccc2nc3ccc(OCc4cc([N+](=O)[O-])ccc4O[C@@H]4O[C@H](CO)[C@H](O)[C@H](O)[C@H]4O)cc3oc-2c1 [C]	0.005-0.05	significantly different release rates	
